Measurements from patent publication US5770565A, “Peptides for reducing or inhibiting bone resorption” (priority 1994, dated 1998).
Where a SMILES comes first, the peptide text is derived from it. Bridges are numbered along the chain shown (N, C = ends).

Assays:
chick osteoclasts = assay: chick osteoclast / total cell detachment assay; format: cell-based; details: FIG. 5
Description: Peptides were evaluated for their ability to detach osteoclasts from a matrix consisting of serum-coated microtiter plates. In prescreening assays, 5 μM of the various RGD peptides was used to identify RGD peptides that released at least 60% of the osteoclasts from the matrix.
Osteoclasts were isolated from embryonic chicks using a modification of the methods of Boyde et al., Br. Dent. J. 156:216 (1984) and Chambers et al., Endocrinology 116:234 (1985), each of which is incorporated herein by reference. […]
The cells were incubated for 90 min at 37° C. in an atmosphere containing 10% CO2. […] Cell layers were stained for 5 min using 0.1% crystal violet and multinucleated osteoclasts were counted by light microscopy. […]
RGD peptides that are selective for releasing osteoclasts, but not the other cell types, from the matrix were identified by extracting the crystal violet stain from fixed cells and comparing the amount of staining in a control well (no peptide) with the amount of staining following incubation of the cells with an RGD peptide. Crystal violet was extracted using 20% acetic acid and the optical density of the resulting solution was measured in 96 well microtiter plates by spectrophotometry at 562 nm. […]

rat osteoclasts = assay: rat osteoclast attachment assay compared with MG63 or NRK cell attachment; format: cell-based; details: FCS substrate, FIGS. 7 and 8
Description: To determine the effect of a peptide on the attachment of rat osteoclasts in vitro, 100 μl aliquots of the rat pup bone cell suspension described in Example II.B.2., above, were added in triplicate to 96 well "MAXISORP" plates coated with specific substrates or with FCS. Substrate coated plates were used to determine the ability of peptides to inhibit attachment or induce detachment of an osteoclast from a ligand such as vitronectin, fibronectin, osteopontin or collagen I (Collaborative Research), which are ligands present in bone. Substrates were added to 96 well plates (50 μl of a 5-10 μg/ml solution in sodium carbonate, pH 9.5) and incubated for 2 hr at 37° C. For FCS control wells, 100 μl 10% FCS was added. Wells were aspirated, then washed 2×with PBS and blocked with 1% bovine serum albumin in PBS for 2 hr at 37° C. Wells were aspirated and washed again 2× with PBS. Cells were seeded in duplicate at 4×10^4 cells/well. […]
Following incubation, the medium and nonadherent cells were removed by aspiration from each well. […] Adherent osteoclasts were counted by light microscopy. […]
MG63 and NRK cell lines were purchased from ATTC (Rockville Md.). […] Following staining, the stain was extracted with 20% acetic acid and the OD562 of the extracted stain was determined. […]
Selectivity of a peptide can be determined by comparing the results of FIGS. 7 and 8 (see, also FIG. 2).

Swiss-Webster mice = assay: PTH-induced hypercalcemia assay; format: in vivo; details: single dose, infused 4 hr after PTH
From the text: Parathyroid hormone (PTH) activates osteoclasts, which are involved in bone resorption. Associated with the increased osteoclast activity is an increase in serum calcium. The PTH-induced hypercalcemia assay measures the level of serum calcium, which is an indication of bone resorption in a subject (Fischer et al., Endocrinology 132:1411-1413 (1993), which is incorporated herein by reference).
Swiss-Webster mice, which had been parathyroidectomized two weeks prior to beginning the assay, were obtained from Taconic Lab Animals and Services (Germantown N.Y.). Femoral vein catheters (PE-50 fused with PE10 polyethylene tubing; Becton Dickinson; Parsippany, N.J.) were installed in the mice, flushed and locked with heparinized saline (1:10), sutured to adjacent muscle and internalized within the inguinal space of the incision before closing the incision with wound clips. […]
The experiment was initiated by feeding the mice a calcium-deficient diet overnight, then injecting the mice the following morning with a bolus of 0.2 mg PTH/kg (hPTH 1-34; Bachem; Torrance Calif.), intravenously. […] Various doses of a peptide or vehicle were infused into an animal for 4 hr, then ionized serum calcium again was measured. […] Serum calcium measurements were expressed as the difference between the value 30 min before the PTH pulse and 4 hr after peptide infusion was started. […]

[1] = test system: αV β3 integrin, osteoclasts; assay: series of assays of Example II for potency and selectivity (summary, FIG. 2)
From the text: Peptides of the RGDNTic (SEQ ID NO: 56) pharmacophore group are characterized, in general, as having increased potency, whereas the peptides of the pharmacophore RGDDV (SEQ ID NO: 1) group generally have higher receptor selectivity. […] As used herein, the term "potency" or "potent" means that a peptide of the invention is active at a relatively low concentration in the assays described in Examples II and III. A potent peptide of the invention can be identified, for example, using the assays described in Examples II and III.
Selectivity can be due, for example, to the ability of a peptide of the invention to bind to αV β3 with greater affinity than it binds to other integrins. Thus, in addition to having selectivity, for example, for osteoclast binding to a matrix, a peptide of the invention also can display receptor selectivity and, therefore, more specifically alter receptor-mediated binding to a matrix. As used herein, the term "receptor selectivity" means that a peptide of the invention can bind to one receptor with greater affinity than it can bind to another receptor.

CC(C)[C@@H]1NC(=O)[C@H](CC(=O)O)NC(=O)[C@H](CC(=O)O)NC(=O)CNC(=O)[C@H](CCCNC(=N)N)NC(=O)CC[C@@H](C(N)=O)NC1=O [peptide 386, RGDDVE-NH2] (RGDDVE-NH2; lactam N-6)
selective detachment of osteoclasts as compared to other cell types (chick osteoclasts): selective detachment of osteoclasts | selectivity: osteoclast attachment versus MG63 or NRK attachment (rat osteoclasts): selective | serum calcium level (Swiss-Webster mice): relatively low level of serum calcium | potency and selectivity together (summary classification) [1]: both potent and selective | receptor selectivity (summary classification) [1]: particularly receptor selective | activity of peptides with minimally essential elements ([1]; FIG. 2): demonstrate activity
